Source: patent US5710169A, “Therapeutic heterocycles” (Zeneca Limited, priority 1994, dated 1998)
Counter-ions that a name gives are not always drawn.

Target: T1, NK1 receptor (Oryctolagus cuniculus, UniProt G1SEI7)
T1 construct: The left and right branches of the pulmonary artery are isolated from the rest of the lung tissue; from tissue; host or cells: pulmonary artery ring segments with intact endothelium, male New Zealand white rabbit (Oryctolagus cuniculus)
Assay: Rabbit Pulmonary Artery: NK1 in vitro functional assay (Test C)
Format: cell-based, New Zealand white rabbit
Settings: agonist ASMSP, read-out: pKB (-log molar KB) in Test C (converted)
Protocol: Rabbit Pulmonary Artery: NK1 in vitro functional assay (Test C)
Male New Zealand white rabbits are killed by lethal injection (Nembutal, 60 mg/kg into a cannulated ear vein). Heparin, 0.0025 ml/kg of a 1000 U/ml solution, is injected into the ear vein prior to nembutal in order to decrease blood coagulation. The left and right branches of the pulmonary artery are isolated from the rest of the lung tissue and cut in half to provide four ring segments from each animal. […] Changes in tension are measured on a Grass polygraph via Grass FT-03 force transducers. […]
Potencies of the compounds are determined by calculating the apparent dissociation constants (KB) for each concentration tested using the standard equation: […]
where dose ratio=antilog[(agonist-log molar EC50 without compound)-(agonist-log molar EC50 with compound)]. The KB values are converted to the negative logarithms and expressed as -log molar KB (i.e. pKB). […] The EC50 values are converted to negative logarithms and expressed as -log molar EC50. Maximum relaxation responses to ASMSP are determined by expressing the maximum response to the agonist as a percentage of the relaxation caused by papaverine.

T1 sequence (G1SEI7 1-407): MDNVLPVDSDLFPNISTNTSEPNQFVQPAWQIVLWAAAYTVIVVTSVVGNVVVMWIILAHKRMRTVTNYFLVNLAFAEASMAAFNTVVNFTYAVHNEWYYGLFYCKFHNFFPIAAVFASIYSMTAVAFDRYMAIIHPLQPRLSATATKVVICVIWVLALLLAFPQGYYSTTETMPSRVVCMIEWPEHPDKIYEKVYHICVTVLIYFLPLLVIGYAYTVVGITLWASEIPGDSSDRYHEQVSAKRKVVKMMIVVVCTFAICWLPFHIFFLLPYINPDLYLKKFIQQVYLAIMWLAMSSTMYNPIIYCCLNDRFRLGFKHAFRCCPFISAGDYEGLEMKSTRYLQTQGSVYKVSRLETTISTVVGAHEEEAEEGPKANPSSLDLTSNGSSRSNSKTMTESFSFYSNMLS

SMILES: COc1ccccc1CC(=O)N(C)CC(c1ccc(Cl)c(Cl)c1)N1CCC(O)(c2ccccc2)CC1 (stereo not shown) [Example 2, N-[2-(3,4-Dichlorophenyl)-2-(4-hydroxy-4-phenylpiperidino)ethyl]-N-methyl-2-methoxyphenylacetamide hydrochloride salt]
- Kb: 631 nM
